# Results published in patent US20250282746A1, “HALOGEN-SUBSTITUTED ISOINDOLINE COMPOUND AND USE THEREOF” (CHENGDU FENDI PHARMACEUTICAL CO., LTD., priority 2022, published 2025).
# Read-outs that look alike come from different tables or passages of the source.
# Assays:
# MV-4-11 cells = assay: Antiproliferative activity against MV-4-11 cells (CellTiter-Glo, 72 h); format: cell-based; details: Homo sapiens
# Method: MV411 cells in the logarithmic growth phase were diluted in a medium (RPMI+10% FBS) and plated at 5,000 cells/well in 96-well whole black plates (WHB) with 50 μL/well. After plating, the plates were incubated in an incubator at 5% CO2 and 37° C. for 24 h before the compounds were added. The compounds were prepared into a 10 mM stock solution in DMSO and diluted in a culture medium to the desired concentrations (a final DMSO concentration of 0.2%). […] The plates were incubated at 5% CO2 and 37° C. for 72 h. After the incubation was complete, the plates were equilibrated at room temperature for 30 min. CellTiter-Glo® Reagent (Promega G7573) was added at 100 μL/well. The plates were shaken for 12 min on a microplate shaker. The luminescence value was measured at room temperature by the GloMax navigator (Promega GM2010).
# GSPT1 protein = biological target: T1, GSPT1 protein (Homo sapiens, UniProt P15170); assay: Degradation of GSPT1 protein in NB-4 cells (Western blot); format: cell-based; details: for inhibition at 1 µM: read-out: GSPT1 degradation
# T1 construct: The whole cell lysate was prepared using a RIPA lysis buffer; endogenous in cells; host or cells: NB-4 cells
# T1 sequence (P15170 whole entry): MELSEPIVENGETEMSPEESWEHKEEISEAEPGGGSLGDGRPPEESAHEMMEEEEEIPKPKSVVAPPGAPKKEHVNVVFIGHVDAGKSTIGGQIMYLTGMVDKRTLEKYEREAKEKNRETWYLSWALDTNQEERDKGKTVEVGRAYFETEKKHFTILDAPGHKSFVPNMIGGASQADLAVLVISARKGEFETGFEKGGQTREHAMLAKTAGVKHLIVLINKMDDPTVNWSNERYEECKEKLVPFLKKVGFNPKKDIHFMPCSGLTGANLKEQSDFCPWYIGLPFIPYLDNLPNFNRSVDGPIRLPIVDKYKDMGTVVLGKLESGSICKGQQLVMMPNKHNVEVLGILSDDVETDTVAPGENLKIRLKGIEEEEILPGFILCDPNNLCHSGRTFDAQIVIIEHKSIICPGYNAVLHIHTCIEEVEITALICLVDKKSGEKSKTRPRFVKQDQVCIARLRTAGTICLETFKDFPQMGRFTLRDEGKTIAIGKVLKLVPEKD
# Method: 150 μL of DMSO and the compounds (1 μM) were added, and the mixture was incubated in an incubator at 5% CO2 and 37° C. for 6 h. The cells were centrifuged, and the culture medium was discarded. PBS was added for washing and then discarded. The whole cell lysate was prepared using a RIPA lysis buffer containing a protease inhibitor cocktail and a phosphatase inhibitor, and incubated on ice for 30 min. The mixture was centrifuged, and the cell debris was discarded. The whole cell lysate supernatant was collected and transferred to a fresh EP tube. Samples were prepared using a loading buffer after a BCA protein assay. The samples were incubated in a metal bath at 100° C. for 10 min.
# The samples were electrophoretically separated from proteins on a 4-20% precast gel (SDS-PAGE gel), transferred to a PVDF membrane, blocked with 5% NFDM/TBST for 1 h at room temperature, co-incubated overnight at 4° C. with the primary antibody, and co-incubated for 2 h at room temperature with the secondary antibody on the next day. The signals were detected on the […]™ imaging system.
# [1] = MV4-11, MV-4-11 cells, 72 h, read-out: Antiproliferative activity IC50
Structure (SMILES),IC50 (MV-4-11 cells; [1]),"inhibition at 1 µM (GSPT1 protein; NB-4 cells, compound 1 μM, 6 h)",other results
O=C(Cc1cc2ccccc2s1)NCc1ccc2c(c1F)CN(C1CCC(=O)NC1=O)C2=O (stereo not shown) [FDAB-136],1 to 10 nM,> 80%,
O=C(Cc1c[nH]c2cccc(Br)c12)NCc1ccc2c(c1F)CN(C1CCC(=O)NC1=O)C2=O (stereo not shown) [FDAB-135],1 to 10 nM,> 80%,
O=C(CCCCN1CCCCC1)NCc1ccc2c(c1F)CN(C1CCC(=O)NC1=O)C2=O (stereo not shown) [FDAB-159],> 1000 nM,< 25%,
O=C(Cc1c[nH]c2ccc(F)cc12)NCc1ccc2c(c1F)CN(C1CCC(=O)NC1=O)C2=O (stereo not shown) [FDAB-134],1 to 10 nM,50 to 80%,
O=C1CCC(N2Cc3cc(CNC(=O)c4ccncn4)c(F)cc3C2=O)C(=O)N1 (stereo not shown) [FDAB-38],> 1000 nM,< 25%,
N#Cc1ccc(NCC(=O)NCc2ccc3c(c2F)CN(C2CCC(=O)NC2=O)C3=O)cc1 (stereo not shown) [FDAB-149],> 1000 nM,< 25%,
O=C1CCC(N2Cc3cc(CNC(=O)c4nc5ccccc5s4)c(F)cc3C2=O)C(=O)N1 (stereo not shown) [FDAB-32],10 to 100 nM,> 80%,
CCCc1ccc(C(=O)NCc2ccc3c(c2F)CN(C2CCC(=O)NC2=O)C3=O)cc1 (stereo not shown) [FDAB-91],< 1 nM,> 80%,
O=C1CCC(N2Cc3c(CNC(=O)C(F)(F)c4ccc(Cl)cc4)cc(F)cc3C2=O)C(=O)N1 (stereo not shown) [FDAB-171],100 to 1000 nM,< 25%,
NCc1cc(F)c2c(c1)CN(C1CCC(=O)NC1=O)C2=O (stereo not shown) [FDAB-9],> 1000 nM,< 25%,
CC(C)OC(=O)N1C(=O)CCC(N2Cc3c(ccc(CNC(=O)c4ccc(Cl)cc4)c3F)C2=O)C1=O (stereo not shown) [FDAB-127],> 1000 nM,< 25%,
COc1cccc(C(=O)NCc2cc3c(cc2F)C(=O)N(C2CCC(=O)NC2=O)C3)c1 (stereo not shown) [FDAB-37],10 to 100 nM,50 to 80%,
Cc1ccc(C(=O)NCc2ccc3c(c2F)CN(C2CCC(=O)NC2=O)C3=O)c(O)c1 (stereo not shown) [FDAB-109],1 to 10 nM,> 80%,
O=C1CCC(N2Cc3cc(CNC(=O)c4ccc(F)cc4)c(F)cc3C2=O)C(=O)N1 (stereo not shown) [FDAB-26],> 1000 nM,< 25%,
Cc1ccc(C(=O)NCc2ccc3c(c2F)CN(C2CCC(=O)N(COC(=O)OC(C)C)C2=O)C3=O)c(F)c1 (stereo not shown) [FDAB-130],,,"IC50 (MV-4-11 cells; MV4-11, 72 h, read-out: Antiproliferative activity IC50): 10 to 100 nM; inhibition at 1 µM (GSPT1 protein; NB-4, 6 h): 50 to 80%"
O=C1CCC(N2Cc3c(ccc(CNC(=O)c4ccc(Cl)cc4F)c3Cl)C2=O)C(=O)N1 (stereo not shown) [FDAB-119],10 to 100 nM,> 80%,
Cc1ccc(C(=O)NCc2ccc3c(c2Cl)CN(C2CCC(=O)NC2=O)C3=O)cc1F (stereo not shown) [FDAB-122],100 to 1000 nM,< 25%,
O=C(C#Cc1ccccn1)NCc1ccc2c(c1F)CN(C1CCC(=O)NC1=O)C2=O (stereo not shown) [FDAB-148],1 to 10 nM,> 80%,
O=C1CCC(N2Cc3cc(CNC(=O)c4cc5ccccc5o4)c(F)cc3C2=O)C(=O)N1 (stereo not shown) [FDAB-19],1 to 10 nM,> 80%,
N#Cc1ccc2c(c1F)CN(C1CCC(=O)NC1=O)C2=O (stereo not shown) [FDAB-1],> 1000 nM,< 25%,
O=C1CCC(N2Cc3c(ccc(CNCc4cc5cc(Cl)ccc5o4)c3F)C2=O)C(=O)N1 (stereo not shown) [FDAB-165],1 to 10 nM,> 80%,
CCc1ccc(C(=O)NCc2ccc3c(c2F)CN(C2CCC(=O)NC2=O)C3=O)cc1 (stereo not shown) [FDAB-90],1 to 10 nM,> 80%,
O=C1CCC(N2Cc3cc(CNC(=O)c4ccc(Cl)cc4)ccc3C2=O)C(=O)N1 (stereo not shown) [reference compound],,,"IC50 (MV-4-11 cells; MV4-11, MV-4-11 cells, read-out: IC50 against MV-4-11 cell proliferation): 103 nM; degradation of GSPT1 protein (GSPT1 protein; co-incubated for 6 h with NB-4 cells): 65%"
N#Cc1ccc2c(c1Cl)CN(C1CCC(=O)NC1=O)C2=O (stereo not shown) [FDAB-10],> 1000 nM,< 25%,
C#Cc1ccc(C(=O)NCc2ccc3c(c2F)CN(C2CCC(=O)NC2=O)C3=O)cc1 (stereo not shown) [FDAB-96],1 to 10 nM,> 80%,
O=C1CCC(N2Cc3cc(CNC(=O)c4ccc(Cl)c(F)c4)c(F)cc3C2=O)C(=O)N1 (stereo not shown) [FDAB-53],10 to 100 nM,> 80%,
